The values that follow are results of earlier work, collected in US20250000936A1, “TREATMENT OF GEOGRAPHIC ATROPHY” (Apellis Pharmaceuticals, Inc., priority 2021, published 2025).

The subject of the data set is complement activation. The conditions noted are these: complement inhibiting activity relative to C-terminally amidated compstatin; cited from earlier work.
Regarding “Ac-ICVWQD(5fW)GAHRCT-CONH2 [Ac-V4W/W7(5fW)/H9A]”, the Activity over compstatin is 121xmore.
Consider “Ac-ICV(1-Nal)QDWGAHRCT-COOH (N-acetyl, 1-Nal) [Ac V4(1-Nal)/H9A-OH]”, for which the Activity over compstatin was 30xmore.
As for “Ac-ICV(Bpa)QDWGAHRCT-COOH (N-acetyl, Bpa) [Ac-V4(Bpa)/H9A-OH]”, the Activity over compstatin is 49xmore.
On to Ac-ICVVQDWGHHRCT-CONH2 [Ac-compstatin], for which the Activity over compstatin is on record as 3xmore.
Turning to “Ac-ICV(2-Igl)QDWGAHRCT-COOH (N-acetyl, 2-Igl) [Ac-V42Igl/H9A-OH]”, the Activity over compstatin is 37xmore.
In the case of “Ac-ICVWQDWGAHRCdT-COOH [Ac-V4W/H9A/T13dT-OH]”, the Activity over compstatin is reported as 55xmore.
With “Ac-ICV(Bpa)QDWGAHRCT-CONH2 (N-acetyl, C-amide, Bpa) [Ac-V4(Bpa)/H9A]”, the Activity over compstatin is on record as 86xmore.
With “Ac-ICV(2-Nal)QDWGAHRCT-COOH (N-acetyl, 2-Nal) [Ac V4(2-Nal)/H9A-OH]”, the Activity over compstatin is 38xmore.
On to “H-GICV(6fW)QD(6fW)GAHRCTN-COOH (6-fluoro-Trp residues) [+G/V4(6fW)/W7(6fW)H9A+N-OH]”, for which the Activity over compstatin was 126xmore.
As for “Ac-ICV(2-Nal)QDWGAHRCT-CONH2 (N-acetyl, C-amide, 2-Nal) [Ac-V4(2-Nal)/H9A]”, the Activity over compstatin is given as 99xmore.
Take “Ac-ICVWQDWGAHRCT-CONH2 (Ac-ICVWQDWGAHRCT-NH2; cysteine pairing not given here) [Ac-V4W/H9A]”: the Activity over compstatin was 45xmore.
Turning to Ac-ICVYQDWGAHRCT-CONH2 [Ac-V4Y/H9A], the Activity over compstatin is 14xmore.
“Ac-ICVDhtQDWGAHRCT-COOH [Ac-V4Dht/H9A-OH]”: the Activity over compstatin is 5xmore.
Regarding “Ac-ICV(2-Igl)QDWGAHRCT-CONH2 (N-acetyl, C-amide, 2-Igl) [Ac-V42Igl/H9A]”, the Activity over compstatin is 39xmore.
